“Also recorded” adds a separate entry of the source.

A short description of this series: Color stability of ODPA after heat treatment (220 to 225° C., about 8 hours). It is filed as physicochemical. Particulars: 220 to 225° C. for about 8 hours, visual observation. As to the method: The color stability of the ODPA after subjecting the ODPA to heat treatment was also examined. The heat stability testing was performed on various ODPA samples as described in Table 7. The samples were tested using a 10 wt % solution of each sample in DMF and APHA values were recorded using a Macbeth colorimeter Each sample was heat-treated by exposing the sample to a temperature of 220 to 225° C. for about 8 hours. The samples were monitored for color changes during the heat exposure duration. Visual observations are recorded in Table 7, as well as the measured APHA color values.

Consider `O=C1OC(=O)c2cc(Oc3ccc4c(c3)C(=O)OC4=O)ccc21` [Example 74, reference compound], for which the “Qualitative color observations after exposure to heat” value was “no detectable color change; also recorded: No change observed”.

The values above are taken from US10752603B2, “Purification of oxydiphthalic anhydrides” (SABIC Global Technologies, B.V., priority 2018, dated 2020).
